Measurements: ChEMBL document CHEMBL2440076, “New triarylpyrazoles as broad-spectrum anticancer agents: design, synthesis, and biological evaluation” (Eur J Med Chem, 2013)

Key:
Type in all cases: functional
[1] = tested on: HCT-116; assay: Growth inhibition of human HCT116 cells assessed as cell growth at 5X10'-5 M after 48 hrs by sulforhodamine B assay; conditions: HCT-116, 48 h, read-out: Activity
[2] = tested on: COLO 205; assay: Growth inhibition of human COLO205 cells assessed as cell growth at 5X10'-5 M after 48 hrs by sulforhodamine B assay; conditions: COLO 205, 48 h, read-out: Activity
[3] = tested on: NCI-H322M; assay: Growth inhibition of human NCI-H322M cells assessed as cell growth at 5X10'-5 M after 48 hrs by sulforhodamine B assay; conditions: read-out: Activity
[4] = tested on: HOP-62; assay: Growth inhibition of human HOP62 cells assessed as cell growth at 5X10'-5 M after 48 hrs by sulforhodamine B assay; conditions: HOP-62, 48 h, read-out: Activity
[5] = tested on: HL-60(TB); assay: Growth inhibition of human HL-60(TB) cells assessed as cell growth at 5X10'-5 M after 48 hrs by sulforhodamine B assay; conditions: HL-60, 48 h, read-out: Activity
[6] = tested on: UACC-62; assay: Growth inhibition of human UACC62 cells assessed as cell growth at 5X10'-6 M after 48 hrs by sulforhodamine B assay; conditions: UACC-62, 48 h, read-out: Activity
[7] = tested on: NCI-H226; assay: Growth inhibition of human NCI-H226 cells assessed as cell growth at 5X10'-9 M after 48 hrs by sulforhodamine B assay; conditions: NCI-H226, 48 h, read-out: Activity
[8] = tested on: HL-60(TB); assay: Growth inhibition of human HL-60(TB) cells assessed as cell growth at 5X10'-9 M after 48 hrs by sulforhodamine B assay; conditions: HL-60, 48 h, read-out: Activity
[9] = tested on: KM12; assay: Growth inhibition of human KM12 cells assessed as cell growth at 5X10'-6 M after 48 hrs by sulforhodamine B assay; conditions: KM12, 48 h, read-out: Activity
[10] = tested on: HOP-62; assay: Growth inhibition of human HOP62 cells assessed as cell growth at 5X10'-6 M after 48 hrs by sulforhodamine B assay; conditions: HOP-62, 48 h, read-out: Activity
[11] = tested on: RPMI-8226; assay: Growth inhibition of human RPMI8226 cells assessed as cell growth at 5X10'-6 M after 48 hrs by sulforhodamine B assay; conditions: RPMI-8226, 48 h, read-out: Activity
[12] = tested on: OVCAR-3; assay: Growth inhibition of human OVCAR3 cells assessed as cell growth at 5X10'-7 M after 48 hrs by sulforhodamine B assay; conditions: OVCAR-3, 48 h, read-out: Activity
[13] = tested on: SK-MEL-5; assay: Growth inhibition of human SK-MEL-5 cells assessed as cell growth at 5X10'-7 M after 48 hrs by sulforhodamine B assay; conditions: SK-MEL-5, 48 h, read-out: Activity
[14] = tested on: SNB-19; assay: Growth inhibition of human SNB19 cells assessed as cell growth at 5X10'-7 M after 48 hrs by sulforhodamine B assay; conditions: SNB-19, 48 h, read-out: Activity
[15] = tested on: MOLT-4; assay: Growth inhibition of human MOLT4 cells assessed as cell growth at 5X10'-7 M after 48 hrs by sulforhodamine B assay; conditions: MOLT-4, 48 h, read-out: Activity
[16] = tested on: HL-60(TB); assay: Growth inhibition of human HL-60(TB) cells assessed as cell growth at 5X10'-7 M after 48 hrs by sulforhodamine B assay; conditions: HL-60, 48 h, read-out: Activity
[17] = tested on: BT-549; assay: Growth inhibition of human BT549 cells assessed as cell growth at 5X10'-8 M after 48 hrs by sulforhodamine B assay; conditions: BT-549, 48 h, read-out: Activity
[18] = tested on: MCF7; assay: Growth inhibition of human MCF7 cells assessed as cell growth at 5X10'-8 M after 48 hrs by sulforhodamine B assay; conditions: MCF7, 48 h, read-out: Activity
[19] = tested on: CAKI-1; assay: Growth inhibition of human CAKI-1 cells assessed as cell growth at 5X10'-8 M after 48 hrs by sulforhodamine B assay; conditions: CAKI-1, 48 h, read-out: Activity
[20] = tested on: OVCAR-8; assay: Growth inhibition of human OVCAR8 cells assessed as cell growth at 5X10'-8 M after 48 hrs by sulforhodamine B assay; conditions: OVCAR-8, 48 h, read-out: Activity
[21] = tested on: SK-MEL-28; assay: Growth inhibition of human SK-MEL-28 cells assessed as cell growth at 5X10'-8 M after 48 hrs by sulforhodamine B assay; conditions: SK-MEL-28, 48 h, read-out: Activity
[22] = tested on: LOX IMVI; assay: Growth inhibition of human LOXIMVI cells assessed as cell growth at 5X10'-8 M after 48 hrs by sulforhodamine B assay; conditions: read-out: Activity
[23] = tested on: MDA-MB-468; assay: Growth inhibition of human MDA-MB-468 cells assessed as cell growth at 5X10'-5 M after 48 hrs by sulforhodamine B assay; conditions: MDA-MB-468, 48 h, read-out: Activity
[24] = tested on: MDA-MB-231; assay: Growth inhibition of human MDA-MB-231 cells assessed as cell growth at 5X10'-5 M after 48 hrs by sulforhodamine B assay; conditions: MDA-MB-231, 48 h, read-out: Activity
[25] = tested on: SK-OV-3; assay: Growth inhibition of human SKOV3 cells assessed as cell growth at 5X10'-5 M after 48 hrs by sulforhodamine B assay; conditions: SK-OV-3, 48 h, read-out: Activity
[26] = tested on: UACC-257; assay: Growth inhibition of human UACC257 cells assessed as cell growth at 5X10'-5 M after 48 hrs by sulforhodamine B assay; conditions: UACC-257, 48 h, read-out: Activity
[27] = Growth inhibition of human HCC2998 cells assessed as cell growth at 5X10'-8 M after 48 hrs by sulforhodamine B assay; conditions: HCC 2998, 48 h, read-out: Activity
[28] = tested on: HOP-92; assay: Growth inhibition of human HOP92 cells assessed as cell growth at 5X10'-8 M after 48 hrs by sulforhodamine B assay; conditions: HOP-92, 48 h, read-out: Activity
[29] = tested on: K562; assay: Growth inhibition of human K562 cells assessed as cell growth at 5X10'-8 M after 48 hrs by sulforhodamine B assay; conditions: K562, 48 h, read-out: Activity
[30] = tested on: TK-10; assay: Growth inhibition of human TK10 cells assessed as cell growth at 5X10'-9 M after 48 hrs by sulforhodamine B assay; conditions: TK-10, 48 h, read-out: Activity
[31] = tested on: RXF 393; assay: Growth inhibition of human RXF393 cells assessed as cell growth at 5X10'-9 M after 48 hrs by sulforhodamine B assay; conditions: RXF 393, 48 h, read-out: Activity
[32] = tested on: SK-OV-3; assay: Growth inhibition of human SKOV3 cells assessed as cell growth at 5X10'-9 M after 48 hrs by sulforhodamine B assay; conditions: SK-OV-3, 48 h, read-out: Activity
[33] = Growth inhibition of human NCI-ADR-RES cells assessed as cell growth at 5X10'-9 M after 48 hrs by sulforhodamine B assay; conditions: read-out: Activity
[34] = tested on: UACC-62; assay: Growth inhibition of human UACC62 cells assessed as cell growth at 5X10'-9 M after 48 hrs by sulforhodamine B assay; conditions: UACC-62, 48 h, read-out: Activity
[35] = tested on: U-251; assay: Growth inhibition of human U251 cells assessed as cell growth at 5X10'-9 M after 48 hrs by sulforhodamine B assay; conditions: U-251, 48 h, read-out: Activity

## COc1cc(-c2nn(-c3cccc(NC(=O)Nc4ccc(Cl)c(Cl)c4)c3)cc2-c2ccncc2)ccc1Cl
[1]
  growth at 50 µM: 2%
[2]
  growth at 50 µM: -94%
[3]
  growth at 50 µM: 6%
[4]
  growth at 50 µM: -9%
[5]
  growth at 50 µM: 3%
[6]
  growth at 5 µM: -56%
[7]
  growth at 0.005 µM: 98%
[8]
  growth at 0.005 µM: 111%
[9]
  growth at 5 µM: -24%
[10]
  growth at 5 µM: -1%
[11]
  growth at 5 µM: -10%
[12]
  growth at 0.5 µM: 64%
[13]
  growth at 0.5 µM: 78%
[14]
  growth at 0.5 µM: 84%
[15]
  growth at 0.5 µM: 78%
[16]
  growth at 0.5 µM: 98%
[17]
  growth at 0.05 µM: 104%
[18]
  growth at 0.05 µM: 92%
[19]
  growth at 0.05 µM: 93%
[20]
  growth at 0.05 µM: 96%
[21]
  growth at 0.05 µM: 95%
[22]
  growth at 0.05 µM: 101%
[23]
  growth at 50 µM: -31%
[24]
  growth at 50 µM: -54%
[25]
  growth at 50 µM: 6%
[26]
  growth at 50 µM: -30%
[27]
  growth at 0.05 µM: 100%
[28]
  growth at 0.05 µM: 64%
[29]
  growth at 0.05 µM: 103%
[30]
  growth at 0.005 µM: 100%
[31]
  growth at 0.005 µM: 97%
[32]
  growth at 0.005 µM: 104%
[33]
  growth at 0.005 µM: 104%
[34]
  growth at 0.005 µM: 98%
[35]
  growth at 0.005 µM: 96%
